Columns and labels:
Format in all cases: cell-based
[1] = molecular target: T1, CaV2.2 (Homo sapiens, UniProt Q00975); assay: VIPR optical membrane potential assay with electrical stimulation, CaV2.2; settings: Table 9, CaV 2.2 receptors
T1 construct: expressed in transfected cells; host or cells: HEK293
Summary of the method: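 HEK293 cells stably expressing CaV2.2 stained with CC2-DMPE/DiSBAC2(3) voltage-sensitive dyes (10 μM final CC2-DMPE, 30 min, RT), then compound added and cells electrically stimulated for 3-5 s. Read-out: background-subtracted 460/580 nm emission ratio; response R=Rf/Ri (post- vs pre-stimulus ratio); antagonism seen as reduced response.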

[2] = molecular target: T2, NaV1.3 (Homo sapiens, UniProt Q9NY46); assay: VIPR optical membrane potential assay with electrical stimulation, NaV1.3; settings: Table 9, NaV 1.3 receptors
T2 construct: expressed in transfected cells; host or cells: HEK293
Summary of the method: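 HEK293 cells stably expressing NaV1.3, stained with CC2-DMPE (10 μM final) then DiSBAC2(3) with ABSC1, 30 min each at RT; compounds added with oxonol. Electrical stimulation for 3 s; 460/580 nm background-subtracted emission ratio Rf/Ri, normalised to tetracaine (positive) and untreated (negative) controls.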

[3] = molecular target: NaV1.8 (Homo sapiens, UniProt Q9Y5Y9); assay: VIPR optical membrane potential assay, NaV1.8 (other subtypes in an analogous mode); settings: Table 9, NaV 1.8 receptors
Method: Antagonist properties of test compounds were assessed as follows. Cells expressing the NaV of interest were placed into microtiter plates. After an incubation period, the cells were stained with fluorescent dyes sensitive to the transmembrane potential. The test compounds were added to the microtiter plate. The cells were stimulated with either chemical or electrical means to evoke a NaV dependent membrane potential change from unblocked channels, which was detected and measured with trans-membrane potential-sensitive dyes. Antagonists were detected as a decreased membrane potential response to the stimulus.
24 hours before the assay on VIPR, CHO cells endogenously expressing a NaV 1.2 type voltage-gated NaV are seeded in 96-well poly-lysine coated plates at 60,000 cells per well. […] Plates are incubated in the dark for 30 minutes at room temperature. • 4) While the cells are being stained with coumarin, a […] oxonol solution in BS#2 is prepared. […] As before, the residual volume should be 40 μL. • 6) Upon removing the bath, the cells are loaded with 80 μL of the DiSBAC2(3) solution, after which test compound, dissolved in DMSO, is added to achieve the desired test concentration to each well from the drug addition plate and mixed thoroughly. The volume in the well should be roughly 121 μL. The cells are then incubated for 20-30 minutes. • 7) Once the incubation is complete, the cells are ready to be assayed on VIPR® with a sodium addback protocol. 120 μL of Bath solution #1 is added to stimulate the NaV dependent depolarization. […] tetracaine was used as an antagonist positive control for block of the NaV channel. Analysis of VIPR® Data:
The following is an example of how NaV1.3 inhibition activity is measured using the optical membrane potential method#2. Other subtypes are performed in an analogous mode in a cell line expressing the NaV of interest.

T2 sequence (Q9NY46 whole entry): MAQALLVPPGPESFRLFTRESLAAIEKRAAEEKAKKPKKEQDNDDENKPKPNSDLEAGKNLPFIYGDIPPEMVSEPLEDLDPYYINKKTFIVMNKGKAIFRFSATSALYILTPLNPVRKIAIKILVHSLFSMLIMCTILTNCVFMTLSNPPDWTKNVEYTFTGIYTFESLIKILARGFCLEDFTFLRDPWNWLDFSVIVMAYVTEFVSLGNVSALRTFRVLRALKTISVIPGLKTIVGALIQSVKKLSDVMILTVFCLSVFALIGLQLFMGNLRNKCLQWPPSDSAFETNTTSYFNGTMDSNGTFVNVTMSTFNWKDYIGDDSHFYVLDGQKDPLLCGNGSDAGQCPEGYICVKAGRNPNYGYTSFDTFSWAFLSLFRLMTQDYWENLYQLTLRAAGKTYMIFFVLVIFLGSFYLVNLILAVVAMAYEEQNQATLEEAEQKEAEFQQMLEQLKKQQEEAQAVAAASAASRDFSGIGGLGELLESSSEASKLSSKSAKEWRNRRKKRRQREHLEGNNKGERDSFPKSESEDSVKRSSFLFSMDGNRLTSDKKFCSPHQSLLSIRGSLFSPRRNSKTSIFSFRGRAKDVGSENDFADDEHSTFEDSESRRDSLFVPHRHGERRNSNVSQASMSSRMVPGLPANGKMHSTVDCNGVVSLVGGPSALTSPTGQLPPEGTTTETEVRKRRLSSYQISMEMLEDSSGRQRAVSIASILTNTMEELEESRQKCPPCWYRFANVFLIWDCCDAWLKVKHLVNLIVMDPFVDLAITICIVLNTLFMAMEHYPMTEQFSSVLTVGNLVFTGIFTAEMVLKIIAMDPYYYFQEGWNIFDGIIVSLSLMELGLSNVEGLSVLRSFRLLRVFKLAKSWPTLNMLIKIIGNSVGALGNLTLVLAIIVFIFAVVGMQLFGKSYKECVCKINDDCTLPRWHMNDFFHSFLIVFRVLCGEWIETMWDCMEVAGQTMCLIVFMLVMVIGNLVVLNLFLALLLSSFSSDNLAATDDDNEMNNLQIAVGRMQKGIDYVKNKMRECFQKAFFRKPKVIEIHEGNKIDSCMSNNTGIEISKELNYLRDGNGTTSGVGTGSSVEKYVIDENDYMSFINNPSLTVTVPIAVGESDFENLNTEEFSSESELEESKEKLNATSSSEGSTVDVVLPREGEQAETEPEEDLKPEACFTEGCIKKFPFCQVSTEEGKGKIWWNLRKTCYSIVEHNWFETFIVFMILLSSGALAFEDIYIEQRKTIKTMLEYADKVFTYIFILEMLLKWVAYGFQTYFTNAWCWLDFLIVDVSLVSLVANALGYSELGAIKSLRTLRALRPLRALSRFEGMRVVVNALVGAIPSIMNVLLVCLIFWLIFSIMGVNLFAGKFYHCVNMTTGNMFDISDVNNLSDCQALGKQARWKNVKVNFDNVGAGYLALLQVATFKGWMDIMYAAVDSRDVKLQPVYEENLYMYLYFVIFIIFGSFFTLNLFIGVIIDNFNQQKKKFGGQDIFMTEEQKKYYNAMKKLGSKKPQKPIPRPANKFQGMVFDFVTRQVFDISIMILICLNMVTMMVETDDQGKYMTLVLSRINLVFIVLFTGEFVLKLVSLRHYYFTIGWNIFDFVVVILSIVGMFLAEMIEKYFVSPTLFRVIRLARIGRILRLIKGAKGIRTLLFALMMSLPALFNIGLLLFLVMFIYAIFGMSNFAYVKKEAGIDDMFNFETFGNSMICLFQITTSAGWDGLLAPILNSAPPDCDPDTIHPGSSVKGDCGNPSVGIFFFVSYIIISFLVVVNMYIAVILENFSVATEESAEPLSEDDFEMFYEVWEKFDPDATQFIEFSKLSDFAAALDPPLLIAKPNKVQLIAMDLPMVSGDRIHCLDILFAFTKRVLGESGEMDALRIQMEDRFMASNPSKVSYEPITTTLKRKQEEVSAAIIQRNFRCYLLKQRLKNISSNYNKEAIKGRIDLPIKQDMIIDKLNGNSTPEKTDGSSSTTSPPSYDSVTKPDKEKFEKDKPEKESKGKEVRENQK
Sequence of NaV1.8 (Q9Y5Y9 whole entry): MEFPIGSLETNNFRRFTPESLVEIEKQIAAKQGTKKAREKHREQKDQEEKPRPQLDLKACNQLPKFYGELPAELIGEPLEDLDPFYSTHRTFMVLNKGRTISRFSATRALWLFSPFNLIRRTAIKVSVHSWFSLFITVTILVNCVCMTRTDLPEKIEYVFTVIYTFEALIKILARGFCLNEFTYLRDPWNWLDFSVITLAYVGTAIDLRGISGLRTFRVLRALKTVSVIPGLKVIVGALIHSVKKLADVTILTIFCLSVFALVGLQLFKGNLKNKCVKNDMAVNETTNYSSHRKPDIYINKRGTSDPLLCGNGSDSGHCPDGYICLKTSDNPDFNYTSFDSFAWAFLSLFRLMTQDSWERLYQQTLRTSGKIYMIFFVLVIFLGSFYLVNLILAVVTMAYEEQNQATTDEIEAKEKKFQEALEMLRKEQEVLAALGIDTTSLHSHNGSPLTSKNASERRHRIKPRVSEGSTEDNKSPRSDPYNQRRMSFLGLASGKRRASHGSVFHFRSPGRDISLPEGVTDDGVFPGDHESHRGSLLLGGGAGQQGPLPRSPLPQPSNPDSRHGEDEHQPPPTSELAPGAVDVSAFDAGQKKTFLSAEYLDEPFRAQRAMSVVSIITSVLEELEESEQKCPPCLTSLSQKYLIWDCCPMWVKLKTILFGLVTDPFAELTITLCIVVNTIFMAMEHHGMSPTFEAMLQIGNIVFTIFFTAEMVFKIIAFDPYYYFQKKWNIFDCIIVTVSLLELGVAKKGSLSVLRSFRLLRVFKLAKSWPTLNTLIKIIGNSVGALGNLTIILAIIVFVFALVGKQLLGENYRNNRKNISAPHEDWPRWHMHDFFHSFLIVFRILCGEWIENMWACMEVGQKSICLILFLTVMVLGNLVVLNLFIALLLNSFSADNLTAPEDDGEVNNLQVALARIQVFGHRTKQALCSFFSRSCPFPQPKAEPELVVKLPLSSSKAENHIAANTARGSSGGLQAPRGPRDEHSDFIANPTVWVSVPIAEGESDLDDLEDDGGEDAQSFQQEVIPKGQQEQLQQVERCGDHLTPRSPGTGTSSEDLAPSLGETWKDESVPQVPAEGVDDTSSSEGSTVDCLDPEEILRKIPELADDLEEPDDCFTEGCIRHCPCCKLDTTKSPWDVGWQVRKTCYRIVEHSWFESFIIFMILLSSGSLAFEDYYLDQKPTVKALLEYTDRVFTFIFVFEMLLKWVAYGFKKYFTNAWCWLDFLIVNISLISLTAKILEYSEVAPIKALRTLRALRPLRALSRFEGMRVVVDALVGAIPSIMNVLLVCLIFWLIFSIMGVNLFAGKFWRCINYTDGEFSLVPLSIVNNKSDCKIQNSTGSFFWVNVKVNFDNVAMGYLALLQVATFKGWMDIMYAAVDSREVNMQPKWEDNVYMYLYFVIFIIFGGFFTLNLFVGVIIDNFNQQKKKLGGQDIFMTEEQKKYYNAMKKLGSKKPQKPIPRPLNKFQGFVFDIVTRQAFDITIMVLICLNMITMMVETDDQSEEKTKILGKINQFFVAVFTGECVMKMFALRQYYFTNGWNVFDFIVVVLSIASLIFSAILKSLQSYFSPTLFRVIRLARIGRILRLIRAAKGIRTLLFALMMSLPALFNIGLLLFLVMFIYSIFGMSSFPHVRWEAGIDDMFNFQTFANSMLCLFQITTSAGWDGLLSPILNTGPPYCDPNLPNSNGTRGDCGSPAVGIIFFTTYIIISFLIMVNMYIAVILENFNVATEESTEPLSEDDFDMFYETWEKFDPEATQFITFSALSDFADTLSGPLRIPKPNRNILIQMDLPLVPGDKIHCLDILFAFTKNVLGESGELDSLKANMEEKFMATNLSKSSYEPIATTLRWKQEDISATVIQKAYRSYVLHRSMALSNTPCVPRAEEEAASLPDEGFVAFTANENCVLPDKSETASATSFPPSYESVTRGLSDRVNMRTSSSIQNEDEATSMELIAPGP

Compound	IC50 [1]	IC50 [2]	IC50 [3]
COc1cccc(N(C(=O)c2cnc(N3CCC4CCCCC4C3)nc2-c2ccccc2F)C2CCC2)c1 (stereo not drawn) [compound 65]	2 to 10 µM	> 10 µM	> 10 µM
CC(C)N(Cc1cccc(O)c1)C(=O)c1cnc(N2CCOCC2)nc1-c1ccccc1F [compound 5]	2 to 10 µM	> 10 µM	> 10 µM
O=C(c1cnc(N2CCOCC2)nc1-c1ccccc1F)N(Cc1ccccc1)C1CCC1 [compound 26]	2 to 10 µM	2 to 10 µM	> 10 µM
Cc1nc(N2CCOCC2)nc(-c2ccccc2F)c1C(=O)N(Cc1ccc(F)cc1)C1CC1 [compound 9]	2 to 10 µM	2 to 10 µM	> 10 µM
CC1CN(c2ncc(C(=O)N(Cc3ccccc3)C(C)C)c(-c3ccccc3F)n2)CC(C)O1 (stereo not drawn) [compound 69]	2 to 10 µM	> 10 µM	> 10 µM
O=C(NC1CCCCC1)c1cnc(N2CCOCC2)nc1-c1ccccc1F [compound 196]	> 10 µM	> 10 µM	> 10 µM
CCN(CCOC)c1ncc(C(=O)N(Cc2ccccc2)C(C)C)c(-c2ccccc2F)n1 [compound 83]	< 2 µM	2 to 10 µM	2 to 10 µM
COc1cccc(N(C(=O)c2cnc(N3CCSCC3)nc2-c2ccccc2F)C(C)C)c1 [compound 62]	2 to 10 µM	2 to 10 µM	> 10 µM
CCC(COC)N(Cc1ccccc1)C(=O)c1c(C)nc(N2CCOCC2)nc1-c1ccccc1F (stereo not drawn) [compound 49]	> 10 µM	2 to 10 µM	> 10 µM
CC(C)N(Cc1ccccc1)C(=O)c1cnc(N2CCCCC2)nc1-c1ccccc1Cl [compound 1]	< 2 µM	2 to 10 µM	2 to 10 µM
Cc1nc(N2CCOCC2)nc(-c2ccccc2F)c1C(=O)N(c1ccccc1)C(C)C [compound 25]	> 10 µM	> 10 µM	> 10 µM
CN(C)CCN(Cc1ccccc1)C(=O)c1cnc(N2CCOCC2)nc1-c1ccccc1F [compound 28]	> 10 µM	> 10 µM	> 10 µM
CN1CCN(c2ncc(C(=O)N(Cc3ccc(F)cc3)C3CC3)c(-c3ccccc3F)n2)CC1 [compound 39]	> 10 µM	> 10 µM	> 10 µM
COc1cccc(Nc2ncc(C(=O)N(Cc3ccccc3)C(C)C)c(-c3ccccc3F)n2)c1 [compound 15]	> 10 µM	> 10 µM	> 10 µM
CC(C)N(C(=O)c1cnc(N2CCOCC2)nc1-c1ccccc1F)c1cccc2ccccc12 [compound 76]	> 10 µM	> 10 µM	> 10 µM
CC(C)N(C(=O)c1cnc(N2CCCCC2)nc1-c1ccccc1Cl)c1ccccc1 [compound 82]	2 to 10 µM	> 10 µM	> 10 µM
CC(C)N(Cc1ccccc1)C(=O)c1cnc(Nc2cccc(C(N)=O)c2)nc1-c1ccccc1F [compound 73]	> 10 µM	> 10 µM	> 10 µM
O=C(NC1Cc2ccccc2C1)c1cnc(N2CCOCC2)nc1-c1ccccc1F [compound 33]	> 10 µM	> 10 µM	> 10 µM
COc1cccc(CN(C(=O)c2cnc(N3CCc4ccccc4C3)nc2-c2ccccc2F)C(C)C)c1 [compound 22]	< 2 µM	2 to 10 µM	> 10 µM
N#CCCN(Cc1ccccc1)C(=O)c1cnc(N2CCOCC2)nc1-c1ccccc1F [compound 75]	> 10 µM	> 10 µM	> 10 µM
COc1cccc(N(C(=O)c2cnc(N3CCCCC3)nc2-c2ccccc2Cl)C2CCCC2)c1 [compound 8]	2 to 10 µM	2 to 10 µM	> 10 µM
O=C(c1cnc(N2CCSCC2)nc1-c1ccccc1F)N(Cc1ccc(C(F)(F)F)cc1)C1CC1 [compound 85]	> 10 µM	2 to 10 µM	2 to 10 µM
CC1CCc2ccccc2N1C(=O)c1cnc(N2CCOCC2)nc1-c1ccccc1F (stereo not drawn) [compound 52]	2 to 10 µM	2 to 10 µM	> 10 µM
O=C(c1cnc(N2CCSCC2)nc1-c1ccccc1F)N(Cc1ccc2c(c1)CCO2)C1CC1 [compound 30]	2 to 10 µM	2 to 10 µM	> 10 µM
CC(C)N(C(=O)c1cnc(N2CCCCC2)nc1-c1ccccc1F)c1cccc(C(C)(C)C)c1 [compound 41]	> 10 µM	2 to 10 µM	> 10 µM
O=C(c1cnc(N2CCSCC2)nc1-c1ccccc1F)N(Cc1ccc(F)cc1)C1CC1 [compound 48]	2 to 10 µM	2 to 10 µM	> 10 µM

Next, values leading:

IC50 [1]	IC50 [2]	IC50 [3]	Compound
2 to 10 µM	2 to 10 µM	> 10 µM	COc1cccc(N(C(=O)c2cnc(N3CCCCC3)nc2-c2ccccc2F)C2CCCCC2)c1 [compound 127]
2 to 10 µM	2 to 10 µM	2 to 10 µM	CC(C)(C)c1ccc(CN(C(=O)c2cnc(N3CCOCC3)nc2-c2ccccc2F)C2CC2)cc1 [compound 161]
2 to 10 µM	> 10 µM	> 10 µM	CC(C)N(C(=O)c1cnc(N2CCC3CCCCC3C2)nc1-c1ccccc1F)C1CCSC1 (stereo not drawn) [compound 141]
> 10 µM	> 10 µM	> 10 µM	CN1CCN(c2ncc(C(=O)N(Cc3ccccc3)C3CC3)c(-c3ccccc3F)n2)CC1 [compound 129]
< 2 µM	< 2 µM	2 to 10 µM	CC(C)N(Cc1ccc2c(c1)OCO2)C(=O)c1cnc(N2CCCCC2)nc1-c1ccccc1F [compound 94]
2 to 10 µM	2 to 10 µM	> 10 µM	O=C(c1cnc(N2CCOCC2)nc1-c1ccccc1F)N(Cc1ccc(C(F)(F)F)cc1)C1CC1 [compound 124]
2 to 10 µM	> 10 µM	> 10 µM	CC(C)N(Cc1ccccc1)C(=O)c1cnc(N2CCOCC2)nc1-c1ccc(Oc2ccccc2)cc1 [compound 123]
< 2 µM	2 to 10 µM	> 10 µM	COc1cccc(CN(C(=O)c2cnc(N3Cc4ccccc4C3)nc2-c2ccccc2F)C(C)C)c1 [compound 134]
2 to 10 µM	> 10 µM	> 10 µM	Cc1cccc(CN(C(=O)c2cnc(N3CCOCC3)nc2-c2ccccc2F)C2CC2)c1 [compound 163]
> 10 µM	> 10 µM	> 10 µM	COc1ccc(CN(C(=O)c2cnc(N3CCN(C)CC3)nc2-c2ccccc2F)C2CC2)cc1 [compound 193]
2 to 10 µM	> 10 µM	> 10 µM	CC(C)N(Cc1ccc(N2CCCC2)cc1)C(=O)c1cnc(N2CCCCC2)nc1-c1ccccc1Cl [compound 198]
> 10 µM	> 10 µM	> 10 µM	COc1cccc(N(C(=O)c2cnc(N3CCN(C)CC3)nc2-c2ccccc2F)C(C)C)c1 [compound 87]
> 10 µM	2 to 10 µM	> 10 µM	CC(C)N(C(=O)c1cnc(N2CCOCC2)nc1-c1ccccc1F)c1cccc(C(C)(C)C)c1 [compound 165]
2 to 10 µM	2 to 10 µM	2 to 10 µM	CC(C)N(Cc1ccccc1)C(=O)c1cnc(N2CCOCC2)nc1-c1cc(F)cc(F)c1 [compound 139]
> 10 µM	> 10 µM	> 10 µM	CC(C)Oc1ccc(-c2nc(N3CCOCC3)ncc2C(=O)N(Cc2ccccc2)C(C)C)cc1 [compound 170]
2 to 10 µM	> 10 µM	> 10 µM	O=C(c1cnc(N2CCOCC2)nc1-c1ccccc1F)N(Cc1cccc(C(F)(F)F)c1)C1CC1 [compound 195]
< 2 µM	> 10 µM	> 10 µM	CC(C)N(Cc1ccc(N2CCCC2)cc1)C(=O)c1cnc(N2CCC3CCCCC3C2)nc1-c1ccccc1F (stereo not drawn) [compound 137]
> 10 µM	> 10 µM	> 10 µM	O=C(c1cnc(N2CCOCC2)nc1-c1ccccc1F)N1Cc2ccccc2C1 [compound 187]
< 2 µM	2 to 10 µM	> 10 µM	COc1ccc(N(C(=O)c2cnc(N3CCCCC3)nc2-c2ccccc2F)C(C)C)cc1 [compound 108]
2 to 10 µM	2 to 10 µM	> 10 µM	COc1cccc(N(C(=O)c2cnc(N3CCCCC3)nc2-c2ccccc2F)C(C)C)c1 [compound 133]
2 to 10 µM	2 to 10 µM	> 10 µM	CC(C)N(C(=O)c1cnc(N2CCC3CCCCC3C2)nc1-c1ccccc1F)c1ccc2c(c1)OCCO2 (stereo not drawn) [compound 151]

— patent US8546414B2, “Ion channel modulators and methods of use” (Vertex Pharmaceuticals Incorporated, priority 2004, dated 2013)
